Reference: article PMC9963013 (Proceedings of the National Academy of Sciences of the …, 2023)

Target: AtSFH5-Sec14 (Arabidopsis thaliana, UniProt Q8GXC6)
Test: X-ray crystal structure, […] Å
Assay type: binding
Details: central cavity; acyl chains switched relative to L-α-PA complex

AtSFH5-Sec14, sequence (Q8GXC6 76-365): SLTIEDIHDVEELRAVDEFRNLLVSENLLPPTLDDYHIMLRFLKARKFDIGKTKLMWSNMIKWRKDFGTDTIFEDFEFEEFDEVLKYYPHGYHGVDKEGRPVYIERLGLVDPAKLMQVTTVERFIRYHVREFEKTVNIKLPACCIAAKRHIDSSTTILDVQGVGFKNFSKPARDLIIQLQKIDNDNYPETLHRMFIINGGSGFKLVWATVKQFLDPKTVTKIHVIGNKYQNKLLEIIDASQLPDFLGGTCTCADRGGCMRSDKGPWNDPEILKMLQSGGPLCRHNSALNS

## CCCCCCCCCCCCCCCC(=O)OC[C@H](COP(=O)(O)O)OC(=O)CCCCCCCCCCCCCCC [DPPA, 1,2-dipalmitoyl-sn-glycero-3-phosphate]
  X-ray crystal structure, 2.1 Å: 7Y10 for AtSFH5-Sec14 in complex with DPPA
